Tests used:
velvetleaf = test: Test B pre/postemergence velvetleaf; format: in vivo, Abutilon theophrasti
Method in brief: (§1)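 Herbicidal effect was estimated by eye on a ten-point control scale after plants spent twelve to sixteen days in a greenhouse following soil or foliar treatment. Foliar sprays targeted plants at one to four leaves; all doses were formulated in a non-phytotoxic solvent with surfactant.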

duck salad = test: Test B flood test duck salad; format: in vivo, Heteranthera limosa
Method in brief: (§2)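 Flood test on plants grown to the 2-leaf stage; treated plants kept in greenhouse twelve to sixteen days, then visually rated against controls on a 0 (no effect) to 10 (complete control) scale.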

smallflower flatsedge = test: Test B flood test smallflower flatsedge; format: in vivo, Cyperus difformis
Method in brief: as §2

wild oat = test: Test B pre/postemergence wild oat; format: in vivo, Avena fatua
Method in brief: as §1

surinam grass = test: Test B pre/postemergence surinam grass; format: in vivo, Brachiaria decumbens
Method in brief: as §1

bedstraw = test: Test B pre/postemergence bedstraw; format: in vivo, Galium aparine
Method in brief: as §1

corn = test: Test B pre/postemergence corn; format: in vivo, Zea mays
Method in brief: as §1

sugar beet = test: Test B pre/postemergence sugar beet; format: in vivo, Beta vulgaris
Method in brief: as §1

rice = test: Test B flood test rice; format: in vivo, Oryza sativa
Method in brief: as §2

wheat = test: Test B pre/postemergence wheat; format: in vivo, Triticum aestivum
Method in brief: as §1

purple nutsedge = test: Test B pre/postemergence purple nutsedge; format: in vivo, Cyperus rotundus
Method in brief: as §1

soybean = test: Test B pre/postemergence soybean; format: in vivo, Glycine max
Method in brief: as §1

pigweed = test: Test B pre/postemergence pigweed; format: in vivo, Amaranthus retroflexus
Method in brief: as §1

blackgrass = test: Test B pre/postemergence blackgrass; format: in vivo, Alopecurus myosuroides
Method in brief: as §1

crabgrass = test: Test B pre/postemergence crabgrass; format: in vivo, Digitaria sanguinalis
Method in brief: as §1

rape = test: Test B pre/postemergence rape; format: in vivo, Brassica napus
Method in brief: as §1

[1] = Preemergence, Rate 62 g/ha, scale of 0 to 10 where 0 is no effect and 10 is complete control
[2] = Preemergence, Rate 250 g/ha, scale of 0 to 10 where 0 is no effect and 10 is complete control
[3] = Preemergence, Rate 500 g/ha, scale of 0 to 10 where 0 is no effect and 10 is complete control
[4] = Rate 125 g/ha, Postemergence, scale of 0 to 10 where 0 is no effect and 10 is complete control
[5] = Rate 125 g/ha, Preemergence, scale of 0 to 10 where 0 is no effect and 10 is complete control
[6] = Rate 250 g/ha, Postemergence, scale of 0 to 10 where 0 is no effect and 10 is complete control
[7] = Rate 500 g/ha, Postemergence, scale 0 to 10, 0 no effect, 10 complete control
[8] = Rate 62 g/ha, headed Pre-emergence (flood test species), scale 0 to 10 (0 no effect, 10 complete control)
[9] = Rate 125 g/ha, Pre-emergence, flood test species, scale 0 to 10 where 0 is no effect and 10 is complete control
[10] = Rate 250 g/ha, Pre-emergence, flood-test species, scale 0 to 10, 0 is no effect, 10 is complete control
[11] = Rate 500 g/ha, Pre-emergence, flood test species, scale 0 to 10 (0 no effect, 10 complete control)
[12] = Rate 62 g/ha, Postemergence, scale of 0 to 10 where 0 is no effect and 10 is complete control

Question: `Cc1ccccc1-n1c(=O)on(C(=O)N(c2cccc(F)c2)C(C)C)c1=O` [Compound 269] was tested. Which “Velvetleaf plant response rating” value (velvetleaf; [1]) did it give?
Answer: Its value is 0.

Question: What about the “Velvetleaf plant response rating” value (velvetleaf; [2]) of the same molecule?
Answer: Its value is 0.

Question: And the “Plant response rating, Velvetleaf” value (velvetleaf; [3])?
Answer: The value was 0.

Question: And the “Velvetleaf plant response rating” value (velvetleaf; [4])?
Answer: The value was 0.

Question: What about the “Velvetleaf plant response rating” value (velvetleaf; [5]) of the same molecule?
Answer: The value was 0.

Question: What about the “Plant response rating, Velvetleaf” value (velvetleaf; [6]) of the same molecule?
Answer: The value was 3.

Question: What about the “Velvetleaf plant response rating” value (velvetleaf; [7]) of the same molecule?
Answer: The value was 3.

Question: What about the “Ducksalad plant response rating” value (duck salad; [8]) of the same molecule?
Answer: The value was 0.

Question: And the “Ducksalad plant response rating” value (duck salad; [9])?
Answer: The value was 0.

Question: And the “Ducksalad plant response rating” value (duck salad; [10])?
Answer: Its value is 0.

Question: And the “Ducksalad plant response rating” value (duck salad; [11])?
Answer: The value was 0.

Question: What about the “S. Flatsedge plant response rating” value (smallflower flatsedge; [8]) of the same molecule?
Answer: The value was 0.

Question: What about the “S. Flatsedge plant response rating” value (smallflower flatsedge; [9]) of the same molecule?
Answer: The value was 0.

Question: What about the “S. Flatsedge plant response rating” value (smallflower flatsedge; [10]) of the same molecule?
Answer: Its value is 0.

Question: What about the “S. Flatsedge plant response rating” value (smallflower flatsedge; [11]) of the same molecule?
Answer: The value was 0.

Question: And the “Wild oats plant response rating” value (wild oat; [1])?
Answer: The value was 0.

Question: What about the “Wild oats plant response rating” value (wild oat; [2]) of the same molecule?
Answer: Its value is 2.

Question: And the “Plant response rating, Wild oats” value (wild oat; [3])?
Answer: Its value is 4.

Question: What about the “Wild oats plant response rating” value (wild oat; [4]) of the same molecule?
Answer: Its value is 0.

Question: What about the “Plant response rating, Wild oats” value (wild oat; [6]) of the same molecule?
Answer: The value was 0.

Question: And the “Wild oats plant response rating” value (wild oat; [7])?
Answer: The value was 3.

Question: And the “B. signalgrass plant response rating” value (surinam grass; [1])?
Answer: The value was 0.

Question: What about the “B. signalgrass plant response rating” value (surinam grass; [2]) of the same molecule?
Answer: Its value is 6.

Question: And the “Plant response rating, B. signalgrass” value (surinam grass; [3])?
Answer: The value was 7.

Question: And the “B. signalgrass plant response rating” value (surinam grass; [12])?
Answer: Its value is 0.

Question: And the “B. signalgrass plant response rating” value (surinam grass; [4])?
Answer: The value was 0.

Question: What about the “B. signalgrass plant response rating” value (surinam grass; [5]) of the same molecule?
Answer: The value was 6.

Question: And the “Plant response rating, B. signalgrass” value (surinam grass; [6])?
Answer: Its value is 0.

Question: And the “B. signalgrass plant response rating” value (surinam grass; [7])?
Answer: Its value is 0.

Question: What about the “Bedstraw plant response rating” value (bedstraw; [1]) of the same molecule?
Answer: Its value is 0.

Question: What about the “Bedstraw plant response rating” value (bedstraw; [2]) of the same molecule?
Answer: The value was 0.

Question: And the “Plant response rating, Bedstraw” value (bedstraw; [3])?
Answer: Its value is 0.

Question: What about the “Bedstraw plant response rating” value (bedstraw; [4]) of the same molecule?
Answer: Its value is 4.

Question: What about the “Bedstraw plant response rating” value (bedstraw; [5]) of the same molecule?
Answer: The value was 0.

Question: And the “Plant response rating, Bedstraw” value (bedstraw; [6])?
Answer: The value was 4.

Question: And the “Bedstraw plant response rating” value (bedstraw; [7])?
Answer: Its value is 7.

Question: What about the “Corn plant response rating” value (corn; [1]) of the same molecule?
Answer: Its value is 0.

Question: And the “Corn plant response rating” value (corn; [2])?
Answer: The value was 0.

Question: And the “Plant response rating, Corn” value (corn; [3])?
Answer: Its value is 0.

Question: And the “Corn plant response rating” value (corn; [12])?
Answer: Its value is 0.

Question: And the “Corn plant response rating” value (corn; [4])?
Answer: Its value is 0.

Question: What about the “Corn plant response rating” value (corn; [5]) of the same molecule?
Answer: The value was 0.

Question: What about the “Plant response rating, Corn” value (corn; [6]) of the same molecule?
Answer: Its value is 0.

Question: And the “Corn plant response rating” value (corn; [7])?
Answer: The value was 0.

Question: And the “Sugarbeets plant response rating” value (sugar beet; [1])?
Answer: The value was 0.

Question: What about the “Sugarbeets plant response rating” value (sugar beet; [2]) of the same molecule?
Answer: Its value is 0.

Question: And the “Plant response rating, Sugarbeets” value (sugar beet; [3])?
Answer: The value was 4.

Question: And the “Sugarbeets plant response rating” value (sugar beet; [4])?
Answer: Its value is 0.

Question: And the “Sugarbeets plant response rating” value (sugar beet; [5])?
Answer: Its value is 0.

Question: What about the “Plant response rating, Sugarbeets” value (sugar beet; [6]) of the same molecule?
Answer: The value was 0.

Question: And the “Sugarbeets plant response rating” value (sugar beet; [7])?
Answer: Its value is 0.

Question: And the “Rice plant response rating” value (rice; [8])?
Answer: Its value is 0.

Question: What about the “Rice plant response rating” value (rice; [9]) of the same molecule?
Answer: Its value is 0.

Question: And the “Rice plant response rating” value (rice; [10])?
Answer: Its value is 0.

Question: What about the “Rice plant response rating” value (rice; [11]) of the same molecule?
Answer: The value was 0.

Question: What about the “Wheat plant response rating” value (wheat; [1]) of the same molecule?
Answer: Its value is 0.

Question: And the “Wheat plant response rating” value (wheat; [2])?
Answer: The value was 0.

Question: What about the “Plant response rating, Wheat” value (wheat; [3]) of the same molecule?
Answer: Its value is 0.

Question: And the “Wheat plant response rating” value (wheat; [4])?
Answer: The value was 0.

Question: What about the “Wheat plant response rating” value (wheat; [5]) of the same molecule?
Answer: Its value is 0.

Question: And the “Plant response rating, Wheat” value (wheat; [6])?
Answer: The value was 2.

Question: What about the “Wheat plant response rating” value (wheat; [7]) of the same molecule?
Answer: Its value is 4.

Question: And the “Nutsedge plant response rating” value (purple nutsedge; [1])?
Answer: Its value is 0.

Question: And the “Nutsedge plant response rating” value (purple nutsedge; [4])?
Answer: The value was 0.

Question: And the “Nutsedge plant response rating” value (purple nutsedge; [5])?
Answer: Its value is 0.

Question: And the “Plant response rating, Nutsedge” value (purple nutsedge; [6])?
Answer: Its value is 0.

Question: And the “Nutsedge plant response rating” value (purple nutsedge; [7])?
Answer: The value was 0.

Question: What about the “Soybean plant response rating” value (soybean; [1]) of the same molecule?
Answer: Its value is 0.

Question: And the “Soybean plant response rating” value (soybean; [2])?
Answer: The value was 0.

Question: What about the “Plant response rating, Soybean” value (soybean; [3]) of the same molecule?
Answer: The value was 4.

Question: And the “Soybean plant response rating” value (soybean; [4])?
Answer: Its value is 1.

Question: What about the “Soybean plant response rating” value (soybean; [5]) of the same molecule?
Answer: Its value is 0.

Question: What about the “Plant response rating, Soybean” value (soybean; [6]) of the same molecule?
Answer: The value was 3.

Question: What about the “Soybean plant response rating” value (soybean; [7]) of the same molecule?
Answer: Its value is 3.

Question: And the “Redroot pigweed plant response rating” value (pigweed; [1])?
Answer: Its value is 0.

Question: What about the “Redroot pigweed plant response rating” value (pigweed; [2]) of the same molecule?
Answer: The value was 4.

Question: What about the “Plant response rating, Redroot pigweed” value (pigweed; [3]) of the same molecule?
Answer: Its value is 4.

Question: What about the “Redroot pigweed plant response rating” value (pigweed; [4]) of the same molecule?
Answer: Its value is 4.

Question: What about the “Redroot pigweed plant response rating” value (pigweed; [5]) of the same molecule?
Answer: Its value is 0.

Question: And the “Plant response rating, Redroot pigweed” value (pigweed; [6])?
Answer: The value was 5.

Question: What about the “Redroot pigweed plant response rating” value (pigweed; [7]) of the same molecule?
Answer: Its value is 6.

Question: And the “Blackgrass plant response rating” value (blackgrass; [1])?
Answer: The value was 0.

Question: What about the “Blackgrass plant response rating” value (blackgrass; [2]) of the same molecule?
Answer: Its value is 3.

Question: And the “Plant response rating, Blackgrass” value (blackgrass; [3])?
Answer: Its value is 7.

Question: And the “Blackgrass plant response rating” value (blackgrass; [12])?
Answer: Its value is 0.

Question: What about the “Blackgrass plant response rating” value (blackgrass; [4]) of the same molecule?
Answer: Its value is 0.

Question: And the “Blackgrass plant response rating” value (blackgrass; [5])?
Answer: The value was 2.

Question: What about the “Plant response rating, Blackgrass” value (blackgrass; [6]) of the same molecule?
Answer: Its value is 2.

Question: And the “Blackgrass plant response rating” value (blackgrass; [7])?
Answer: The value was 5.

Question: And the “Crabgrass plant response rating” value (crabgrass; [1])?
Answer: The value was 0.

Question: And the “Crabgrass plant response rating” value (crabgrass; [2])?
Answer: Its value is 3.

Question: What about the “Plant response rating, Crabgrass” value (crabgrass; [3]) of the same molecule?
Answer: Its value is 6.

Question: What about the “Crabgrass plant response rating” value (crabgrass; [4]) of the same molecule?
Answer: The value was 0.

Question: What about the “Crabgrass plant response rating” value (crabgrass; [5]) of the same molecule?
Answer: The value was 2.

Question: And the “Plant response rating, Crabgrass” value (crabgrass; [6])?
Answer: Its value is 0.

Question: And the “Crabgrass plant response rating” value (crabgrass; [7])?
Answer: The value was 1.

Question: What about the “Rape plant response rating” value (rape; [1]) of the same molecule?
Answer: Its value is 0.

Question: What about the “Rape plant response rating” value (rape; [2]) of the same molecule?
Answer: The value was 0.

Question: And the “Plant response rating, Rape” value (rape; [3])?
Answer: Its value is 0.

Question: What about the “Rape plant response rating” value (rape; [4]) of the same molecule?
Answer: Its value is 0.

Question: What about the “Rape plant response rating” value (rape; [5]) of the same molecule?
Answer: The value was 0.

Question: And the “Plant response rating, Rape” value (rape; [6])?
Answer: Its value is 0.

Question: What about the “Rape plant response rating” value (rape; [7]) of the same molecule?
Answer: Its value is 0.
